Consider nine compounds from patent US6472421B1, “Methods for treating, preventing, and reducing the risk of the onset of alzheimer's disease using an HMG CoA reductase inhibitor” (Nymox Corporation, priority 1998, dated 2002).

Experiment [1] relates to Alzheimer's disease (AD) in patients over the age of 60. The experiment in a line: Health care database study at three hospitals: frequency of AD by medication (ICD-9-CM codes). The format is in vivo, human. The note with it: for Prevalence Of AD/1000 Hines / Prevalence Of AD/1000 Loyola / Prevalence Of AD/1000 Phoenix / Prevalence Of AD/1000 Combined: patients 60 years or over; for Prevalence Of AD/1000 Hines: Hines Veterans Authority Medical Center; for Prevalence Of AD/1000 Loyola: Loyola Medical Center; for Prevalence Of AD/1000 Phoenix: Phoenix Veterans Authority Medical Center; for Prevalence Of AD/1000 Combined: data from the three sites combined; for effect on prevalence / risk of AD (in words): patients over the age of 60, compared with total patient population. From the text:
To perform the study, relational databases at three different hospitals (Loyola Medical Center (“Loyola”), Hines Veterans Authority Medical Center (“Hines”), and Phoenix Veterans Authority Medical Center (“Phoenix”)) were searched to obtain aggregate data about the frequency of AD. Each database included clinical information that facilitated identification of potential relationships between specific items. […] Patient privacy was protected by using only aggregate patient data.
Each database was sorted to exclude any subjects under the age of 60 and any entries that contained patients' names but no medical information pertinent to the study. This yielded a total patient sample size for the three databases of 63,296 patients.
The frequency of AD for each medication was then determined using ICD-9-CM codes.
Alzheimer's disease was identified under the ICD-9-CM code of 331.0, but because other codes also apply to AD, the codes 331.2, 290.0, 290.10-13, 290.20 and 290.3 were also included as AD cases based on interviews with the physicians at each center who diagnosed or oversaw the diagnosis of patients with AD and on their coding practices for AD. The diagnosis of AD was made according to the criteria of the National Institute of Neurological and Communicative Disorders and Stroke (NINCDS) and the Alzheimer's Disease and Related Disorders Association (ADRDA) Work Group (McKhann et al., “Clinical Diagnosis of Alzheimer's Disease: Report of the NINCDS-ADRDA Work Group under the Auspices of Department of Health and Human Services Task Force on Alzheimer's Disease,” Neurology, 34:939-944 (1984).) Each AD patient had received either a CT scan or MRI to exclude other diagnoses, and had been screened for other metabolic, toxic, or affective disorders that may produce dementia.
Statistics were determined by comparisons of proportions using chi square analyses. All statistics listed P values and 95% confidence intervals.

In the next experiment the test system is Alzheimer's disease (AD). The note with it: comparison figures, no source given; cited from earlier work.

With `CC(C)NCC(O)COc1ccc(CC(N)=O)cc1` (stereo not shown) [Atenolol, atenolol], in experiment [1], the “Prevalence Of AD/1000 Hines” value is given as 7.1 /1000, the “Prevalence Of AD/1000 Loyola” value is given as 19.2 /1000, the “Prevalence Of AD/1000 Phoenix” value is 19.0 /1000 and the “Prevalence Of AD/1000 Combined” value is listed as 14.8 /1000. In addition, the “effect on prevalence / risk of AD (in words)” value (“effect on prevalence / risk” for short) in experiment [1] is on record as “higher than that of the total patient cohort”.

On to `C[C@H](CS)C(=O)N1CCC[C@H]1C(=O)O` [Captopril, captopril], for which, in experiment [1], the “Prevalence Of AD/1000 Hines” value was 8.4 /1000, the “Prevalence Of AD/1000 Loyola” value is 13.6 /1000, the “Prevalence Of AD/1000 Phoenix” value is reported as 10.6 /1000 and the “Prevalence Of AD/1000 Combined” value is 10.6 /1000. Besides, the “effect on prevalence / risk” value in experiment [1] is “did not show any significant reduction”.

In the case of `NS(=O)(=O)c1cc(C(=O)O)c(NCc2ccco2)cc1Cl` [Furosemide, furosemide], in experiment [1], the “Prevalence Of AD/1000 Hines” value is recorded as 9.0 /1000, the “Prevalence Of AD/1000 Loyola” value is recorded as 16.7 /1000, the “Prevalence Of AD/1000 Phoenix” value is on record as 14.1 /1000 and the “Prevalence Of AD/1000 Combined” value is recorded as 8.9 /1000. Besides, in experiment [1], the “effect on prevalence / risk” value is “did not show any significant reduction”.

Regarding `COCCc1ccc(OCC(O)CNC(C)C)cc1` (stereo not shown) [Metoprolol, metoprolol], in experiment [1], the “Prevalence Of AD/1000 Hines” value was 4.4 /1000, the “Prevalence Of AD/1000 Loyola” value is listed as 15.3 /1000, the “Prevalence Of AD/1000 Phoenix” value was 12.4 /1000 and the “Prevalence Of AD/1000 Combined” value is listed as 12.1 /1000. For the same compound, the “effect on prevalence / risk” value in experiment [1] was “higher than that of the total patient cohort”.

Regarding `CC[C@H](C)C(=O)O[C@H]1C[C@H](O)C=C2C=C[C@H](C)[C@H](CC[C@@H](O)C[C@@H](O)CC(=O)O)[C@H]21` [Pravastatin, 1-naphthalene-hepatnoic acid, 1,2,6,7,8,8a-hexahydro-β,δ,6-trihydroxy-2-methyl-8-(2-methyl-1-oxobutoxy)], in experiment [1], the “Prevalence Of AD/1000 Hines” value was 1.1 /1000, the “Prevalence Of AD/1000 Loyola” value is given as 0 /1000, the “Prevalence Of AD/1000 Phoenix” value is on record as 8.3 /1000 and the “Prevalence Of AD/1000 Combined” value was 4.3 /1000.

Consider `CC(C)NCC(O)COc1cccc2ccccc12` (stereo not shown) [Propanolol, propanolol], for which, in experiment [1], the “Prevalence Of AD/1000 Hines” value was 3.9 /1000, the “Prevalence Of AD/1000 Loyola” value is 42.4 /1000, the “Prevalence Of AD/1000 Phoenix” value is on record as 20.7 /1000 and the “Prevalence Of AD/1000 Combined” value is reported as 17.5 /1000. For the same compound, the “effect on prevalence / risk” value in experiment [1] was “higher than that of the total patient cohort”.

Turning to `CCC(C)(C)C(=O)O[C@H]1C[C@@H](C)C=C2C=C[C@H](C)[C@H](CC[C@@H]3C[C@@H](O)CC(=O)O3)[C@H]21` [Simvastatin, simvastatin], in experiment [1], the “Prevalence Of AD/1000 Loyola” value is listed as 8.1 /1000, the “Prevalence Of AD/1000 Phoenix” value is given as 11.2 /1000 and the “Prevalence Of AD/1000 Combined” value is recorded as 11.2 /1000.

Take `Cc1c(C)c2c(c(C)c1O)CC[C@@](C)(CCC[C@H](C)CCC[C@H](C)CCCC(C)C)O2` [alpha-tocopherol]: the “degree of reduction (of AD risk), other putative AD therapeutics” value with Alzheimer's disease (AD) is on record as 52%.

For the compound estrogen, the “degree of reduction (of AD risk), other putative AD therapeutics” value with Alzheimer's disease (AD) was 25-31%.
